# Assay results from patent US6914045B2, “Glycopeptide antibiotics” (Wyeth Holdings Corporation, priority 2001, dated 2005).
# Columns and labels:
# Experiment in all cases: in vitro antibacterial evaluation, MIC by broth dilution
# Format in all cases: cell-based
# [1] = test system: Streptococcus sp.; conditions: broth dilution, 18 hours at 35° C.
# Procedure, shortened: (§1)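 Following National Committee for Clinical Laboratory Standards recommendations (M7-A2), susceptibility was measured by dilution in Muller-Hinton II […]. Bacteria were seeded at 5×10^5 CFU/mL against compound concentrations from 64 down to 0.06 μg/mL.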
# [2] = test system: Enterococcus sp.; conditions: broth dilution, 18 hours at 35° C.
# Procedure, shortened: as §1
# [3] = test system: Escherichia coli
# Procedure, shortened: as §1
# [4] = test system: Staphylococcus sp.; conditions: broth dilution, 18 hours at 35° C.; for MIC Staphylococcus aureus (GC 1131): strain GC 1131
# Procedure, shortened: as §1
compound,measurement,setting,value
COc1cc(OC)cc(C2OCC3OC(OC4C(CO)OC(Oc5ccc(CC6NC(=O)C(C(C)c7ccccc7)NC(=O)CNC(=O)C(CO)NC(=O)C(C(O)C7CNC(=N)N7C7OC(CO)C(O)C(O)C7O)NC(=O)C(C(O)C7CNC(=N)N7)NC6=O)cc5)C(O)C4O)C(O)C(O)C3O2)c1 (stereo not drawn) [Example 150],MIC Streptococcus agalactiae (GC 4564),[1]; Streptococcus agalactiae (GC 4564),1 µg/mL
same,MIC Streptococcus pneumoniae (ATCC 6301),[1]; Streptococcus pneumoniae (ATCC 6301),0.25 µg/mL
same,MIC Streptococcus pneumoniae (GC 1894),[1]; Streptococcus pneumoniae (GC 1894),0.12 µg/mL
same,MIC Streptococcus pneumoniae (GC 4565),[1]; Streptococcus pneumoniae (GC 4565),0.25 µg/mL
same,MIC Streptococcus pyogenes (GC 4563),[1]; Streptococcus pyogenes (GC 4563),0.5 µg/mL
same,MIC Streptococcus pneumoniae (ATCC 6301),[1]; strain ATCC 6301,0.25 µg/mL
same,MIC Streptococcus pneumoniae (GC 1894),[1]; strain GC 1894,0.12 µg/mL
same,MIC Streptococcus pyogenes (GC 4563),[1]; strain GC 4563,0.5 µg/mL
same,MIC Streptococcus agalactiae (GC 4564),[1]; strain GC 4564,1 µg/mL
same,MIC Streptococcus pneumoniae (GC 4565),[1]; strain GC 4565,0.25 µg/mL
same,MIC Enterococcus avium (GC 4558),[2]; Enterococcus avium (GC 4558),8 µg/mL
same,MIC Enterococcus faecalis (ATCC 29212),[2]; Enterococcus faecalis (ATCC 29212),8 µg/mL
same,MIC Enterococcus faecalis (GC 2242),[2]; Enterococcus faecalis (GC 2242),4 µg/mL
same,MIC Enterococcus faecalis (GC 2691),[2]; Enterococcus faecalis (GC 2691),4 µg/mL
same,MIC Enterococcus faecalis (GC 3059),[2]; Enterococcus faecalis (GC 3059),8 µg/mL
same,MIC Enterococcus faecalis (GC 4552),[2]; Enterococcus faecalis (GC 4552),8 µg/mL
same,MIC Enterococcus faecalis (GC 4553),[2]; Enterococcus faecalis (GC 4553),8 µg/mL
same,MIC Enterococcus faecalis (GC 4554),[2]; Enterococcus faecalis (GC 4554),8 µg/mL
same,MIC Enterococcus faecalis (GC 6189),[2]; Enterococcus faecalis (GC 6189),8 µg/mL
same,MIC Enterococcus faecium (GC 2243),[2]; Enterococcus faecium (GC 2243),8 µg/mL
same,MIC Enterococcus faecium (GC 4556),[2]; Enterococcus faecium (GC 4556),8 µg/mL
same,MIC Enterococcus faecium (GC 4557),[2]; Enterococcus faecium (GC 4557),4 µg/mL
same,MIC Enterococcus faecalis (ATCC 29212),[2]; strain ATCC 29212,8 µg/mL
same,MIC Enterococcus faecalis (GC 2242),[2]; strain GC 2242,4 µg/mL
same,MIC Enterococcus faecium (GC 2243),[2]; strain GC 2243,8 µg/mL
same,MIC Enterococcus faecalis (GC 2691),[2]; strain GC 2691,4 µg/mL
same,MIC Enterococcus faecalis (GC 3059),[2]; strain GC 3059,8 µg/mL
same,MIC Enterococcus faecalis (GC 4552),[2]; strain GC 4552,8 µg/mL
same,MIC Enterococcus faecalis (GC 4553),[2]; strain GC 4553,8 µg/mL
same,MIC Enterococcus faecalis (GC 4554),[2]; strain GC 4554,8 µg/mL
same,MIC Enterococcus faecium (GC 4556),[2]; strain GC 4556,8 µg/mL
same,MIC Enterococcus faecium (GC 4557),[2]; strain GC 4557,4 µg/mL
same,MIC Enterococcus avium (GC 4558),[2]; strain GC 4558,8 µg/mL
same,MIC Enterococcus faecalis (GC 6189),[2]; strain GC 6189,8 µg/mL
same,MIC Escherichia coli (ATCC 25922),"[3]; strain ATCC 25922, 18 hours at 35° C.",>64 µg/mL
same,MIC Escherichia coli (GC 4559),"[3]; strain GC 4559, 18 hours at 35° C.",32 µg/mL
same,MIC Escherichia coli (GC 4560),"[3]; strain GC 4560, 18 hours at 35° C.",1 µg/mL
same,MIC Staphylococcus aureus (GC 1131),[4]; inoculum 5×10^5 CFU/mL,4 µg/mL
same,MIC Staphylococcus aureus (ATCC 29213),[4]; strain ATCC 29213,2 µg/mL
same,MIC Staphylococcus aureus (GC 1131),[4],4 µg/mL
same,MIC Staphylococcus aureus (GC 3051),[4]; strain GC 3051,2 µg/mL
same,MIC Staphylococcus aureus (GC 3053),[4]; strain GC 3053,8 µg/mL
same,MIC Staphylococcus aureus (GC 4541),[4]; strain GC 4541,2 µg/mL
same,MIC Staphylococcus aureus (GC 4542),[4]; strain GC 4542,2 µg/mL
same,MIC Staphylococcus aureus-SMITH (GC 4543),[4]; strain GC 4543,2 µg/mL
same,MIC Staphylococcus aureus (GC 4544),[4]; strain GC 4544,2 µg/mL
same,MIC Staphylococcus aureus (GC 4545),[4]; strain GC 4545,2 µg/mL
same,MIC Staphylococcus haemolyticus (GC 4546),[4]; strain GC 4546,1 µg/mL
same,MIC Coagulase Negative Staphylococcus (GC 4547),[4]; strain GC 4547,2 µg/mL
same,MIC Coagulase Negative Staphylococcus (GC 4548),[4]; strain GC 4548,1 µg/mL
same,MIC Coagulase Negative Staphylococcus (GC 4549),[4]; strain GC 4549,1 µg/mL
same,MIC Coagulase Negative Staphylococcus (GC 4551),[4]; strain GC 4551,2 µg/mL
same,MIC Coagulase Negative Staphylococcus (GC 6257),[4]; strain GC 6257,1 µg/mL
same,MIC Staphylococcus aureus-SMITH (GC 4543),[4]; strain SMITH GC 4543,2 µg/mL
